Test results as given in US20200249573A1, “COMPOSITION FOR RESIST UNDERLAYER FILM FORMATION, UNDERLAYER FILM FOR LITHOGRAPHY, AND PATTERN FORMATION METHOD” (MITSUBISHI GAS CHEMICAL COMPANY, INC., priority 2016, published 2020).

Assay: Solubility of the compound in PGMEA (safe solvent)
Details: 23° C.; for solubility in PGMEA (amount of dissolution): ultrasonic waves 30 minutes, visual observation
Method: The solubility of the obtained compound in propylene glycol monomethyl ether acetate (PGMEA) was measured as the solubility of the compound in a safe solvent. The solubility was evaluated according to the following criteria utilizing the amount of dissolution in PGMEA. The amount of dissolution in PGMEA was measured at 23° C. by precisely weighing the compound into a test tube, adding PGMEA so as to attain a predetermined concentration, applying ultrasonic waves for 30 minutes in an ultrasonic cleaner, then visually observing the subsequent state of the fluid, and conducting evaluation on the basis of the concentration of the amount of complete dissolution.
A: 5.0% by mass<Amount of dissolution
B: 3.0% by mass<Amount of dissolution<5.0% by mass
C: Amount of dissolution<3.0% by mass

| SMILES | solubility in PGMEA, evaluation | solubility in PGMEA (amount of dissolution) |
| --- | --- | --- |
| Oc1ccc([Te](Cl)(Cl)c2ccc(O)cc2)cc1 [BHPT, bis(4-hydroxyphenyl)tellurium dichloride] | A (5.0% by mass<Amount of dissolution) | ≥ 5 % by mass |
| CC1(OC(=O)COc2ccc([Te](Cl)(Cl)c3ccc(OCC(=O)OC4(C)C5CC6CC(C5)CC4C6)cc3)cc2)C2CC3CC(C2)CC1C3 (stereo not shown) [BHPT-ADBAC, bis(4-(2-methyl-2-adamantyloxycarbonylmethoxy)phenyl)tellurium dichloride] | A (5.0% by mass<Amount of dissolution) | ≥ 5 % by mass |
| CC(C)(C)OC(=O)Oc1ccc([Te](Cl)(Cl)c2ccc(OC(=O)OC(C)(C)C)cc2)cc1 [BHPT-BOC, bis(tert-butoxycarboxyphenyl)tellurium dichloride] | A (5.0% by mass<Amount of dissolution) | ≥ 5 % by mass |
| CCOC(C)Oc1ccc([Te](Cl)(Cl)c2ccc(OC(C)OCC)cc2)cc1 (stereo not shown) [BHPT-EE, bis(ethoxyethylphenyl)tellurium dichloride] | A (5.0% by mass<Amount of dissolution) | ≥ 5 % by mass |
| Oc1ccc([Te](Cl)(Cl)c2ccc(O)cc2O)cc1 [CCHT, (2,4-dihydroxyphenyl) (4-hydroxyphenyl)tellurium dichloride] | A (5.0% by mass<Amount of dissolution) | ≥ 5 % by mass |
| CC1(OC(=O)COc2ccc([Te](Cl)(Cl)c3ccc(OCC(=O)OC4(C)C5CC6CC(C5)CC4C6)cc3OCC(=O)OC3(C)C4CC5CC(C4)CC3C5)cc2)C2CC3CC(C2)CC1C3 (stereo not shown) [CCHT-ADBAC] | A (5.0% by mass<Amount of dissolution) | ≥ 5 % by mass |
| Oc1ccc([Te](Cl)(Cl)c2ccc(O)c(-c3ccccc3)c2)cc1-c1ccccc1 [Ph-BHPT, bis(3-phenyl-4-hydroxyphenyl)tellurium dichloride] | A (5.0% by mass<Amount of dissolution) | ≥ 5 % by mass |
| CC1(OC(=O)COc2ccc([Te](Cl)(Cl)c3ccc(OCC(=O)OC4(C)C5CC6CC(C5)CC4C6)c(-c4ccccc4)c3)cc2-c2ccccc2)C2CC3CC(C2)CC1C3 (stereo not shown) [Ph-BHPT-ADBAC] | A (5.0% by mass<Amount of dissolution) | ≥ 5 % by mass |
| Oc1ccc([Te]c2ccc(O)c(-c3ccccc3)c2)cc1-c1ccccc1 [Ph-TDP, bis(3-phenyl-4-hydroxyphenyl)tellurium] | A (5.0% by mass<Amount of dissolution) | ≥ 5 % by mass |
| CC1(OC(=O)COc2ccc([Te]c3ccc(OCC(=O)OC4(C)C5CC6CC(C5)CC4C6)c(-c4ccccc4)c3)cc2-c2ccccc2)C2CC3CC(C2)CC1C3 (stereo not shown) [Ph-TDP-ADBAC] | A (5.0% by mass<Amount of dissolution) | ≥ 5 % by mass |
| CC(C)(C)OC(=O)COc1ccc([Te]c2ccc(OCC(=O)OC(C)(C)C)c(-c3ccccc3)c2)cc1-c1ccccc1 [Ph-TDP-BOC] | A (5.0% by mass<Amount of dissolution) | ≥ 5 % by mass |
| CCOC(C)Oc1ccc([Te](Cl)(Cl)c2ccc(OC(C)OCC)c(-c3ccccc3)c2)cc1-c1ccccc1 (stereo not shown) [Ph-TDP-EE] | A (5.0% by mass<Amount of dissolution) | ≥ 5 % by mass |
| Oc1ccc([Te]c2ccc(O)cc2)cc1 [TDP, 4,4′-telluriumdiphenol] | A (5.0% by mass<Amount of dissolution) | ≥ 5 % by mass |
| CC1(OC(=O)COc2ccc([Te]c3ccc(OCC(=O)OC4(C)C5CC6CC(C5)CC4C6)cc3)cc2)C2CC3CC(C2)CC1C3 (stereo not shown) [TDP-ADBAC] | A (5.0% by mass<Amount of dissolution) | ≥ 5 % by mass |
